# Assay results reported in patent publication US4039736A (Bristol-Myers Company, priority 1976, dated 1977).
# Like-named read-outs stand apart in the source and are kept apart here.
# Columns and labels:
# [1] = test system: Cryptococcus neoformans A-1503; assay: MIC, standard tube dilution procedure; type: cell-based; conditions: A1503
# [2] = test system: Streptococcus pneumoniae A-9585; assay: MIC, standard tube dilution procedure; type: cell-based; conditions: A9585
# Proteus mirabilis A-9900 = assay: MIC, standard tube dilution procedure; type: cell-based; conditions: A9900
# [3] = test system: Staphylococcus aureus A-9537; assay: MIC, standard tube dilution procedure; type: cell-based; conditions: A9537
# Escherichia coli A-15119 = assay: MIC, standard tube dilution procedure; type: cell-based; conditions: A15119
# [4] = test system: Staphylococcus aureus A-9497; assay: MIC, standard tube dilution procedure; type: cell-based; conditions: A9497
# P-388 leukemia = assay: transplanted mouse leukemia P-388 (ascitic); conditions: for Avg. wt. Difference (T-C, g.) / T/C Percent MST: single i.p. injection Day 1
# Protocol: (§1) The compounds of the present invention were also tested against various transplantable rodent tumer systems.
# (§2) Single injection Day 1 intraperitoneally.?
# (§3) T/C percent MST=median survival time in days: Treated/Control × 100
# L-1210 leukemia [5] = assay: L-1210 mouse leukemia, purified compounds, BDF1 female mice
# Protocol: Inoculum: 10^6 ascitic cells, i.p. into BDF1 female mice
# Treatment: i.p. in 0.5 ml. volume
# Evaluation: MST = median survival time in days; %T/C = MST treated/MST
# (prolongation of host survival)
# [6] = test system: Candida tropicalis A-15051; assay: MIC, standard tube dilution procedure; type: cell-based; conditions: A15051
# Candida albicans A-9540 = assay: MIC, standard tube dilution procedure; type: cell-based; conditions: A9540
# Escherichia coli A-21780 = assay: MIC, standard tube dilution procedure; type: cell-based; conditions: A21780
# [7] = test system: Trichophyton mentagrophytes A-9870; assay: MIC, standard tube dilution procedure; type: cell-based; conditions: A9870
# [8] = test system: Klebsiella pneumoniae A-9977; assay: MIC, standard tube dilution procedure; type: cell-based; conditions: A9977
# [9] = test system: Streptococcus pyogenes A-9604; assay: MIC, standard tube dilution procedure; type: cell-based; conditions: A9604
# Candida krusei A-15052 = assay: MIC, standard tube dilution procedure; type: cell-based; conditions: Pichia kudriavzevii, A15052
# L-1210 leukemia [10] = assay: transplanted mouse leukemia L-1210 (ascitic); conditions: for Avg. wt. Difference (T-C, g.) / T/C Percent MST: single i.p. injection Day 1
# Protocol: as §1, §2, §3
# [11] = acute intraperitoneal LD50 in mice; conditions: mouse, in vivo, ip
# [12] = activity of column fractions of bohemic acid complex; conditions: Example 8 large scale fractionation
# Protocol: Sephadex LH-20 soaked for 68 hours in chloroform was slurry packed into a Pharmacia SR 25/100 column (25 mm. I.D. × 100 cm. height) equipped with adjustable teflon tips at each end. The column was packed so as to be completely filled from tip to tip, an effective bed height of 90-95 cm. Bohemic acid complex (500 mg.) was dissolved in 10 ml. chloroform and applied to the column which was then allowed to develop with chloroform by downflow at a take-off rate of 1 ml./min. Eluted liquid was collected in 6 ml. cuts in a fraction collector. Samplings of even numbered tubes were diluted 80-fold with chloroform and read in a Bausch and Lomb Spectronic 20 colorimeter at 490 mμ. Four distinct bands of anthracycline pigments were noted as follows:
# The solids obtained were chromatographed on Brinkmann 60F254 silica gel thin layer plates using an 80:20 toluene:methanol solvent system. […] The second band gave a characteristic pinkish red zone at about Rf =0.75. […] The third fraction to elute gave a single zone with Rf ~0.3. […] The final band to elute gave a zone at Rf ~0.3 and comprised mainly marcellomycin. […]
# A 6 inch (diameter) × 77 inch (height) glass column was equipped at the base with a no clog filter on top of which was placed a layer of glass wool followed by a circular polyethylene frit. […] Aliquots of every fifth fraction were diluted and analyzed as described in Example 7. […]
# Solubility = type: physicochemical
# [13] = 3.2 mg/kg/day i.p., Day 1, 1 injection
# [14] = 3.2 mg/kg/day i.p., Day 1→5, 5 injections
# [15] = 6.4 mg/kg/day i.p., Day 1, 1 injection
# [16] = 6.4 mg/kg/day i.p., Day 1→5, 4 injections
# [17] = 12.8 mg/kg/day i.p., Day 1, 1 injection
# [18] = .2 mg/kg/day i.p., Day 1→5, 5 injections
# [19] = .4 mg/kg/day i.p., Day 1, 1 injection
# [20] = .4 mg/kg/day i.p., Day 1→5, 5 injections
# [21] = .8 mg/kg/day i.p., Day 1, 1 injection
# [22] = .8 mg/kg/day i.p., Day 1→5, 5 injections
# [23] = 6.4 mg/kg/day i.p., Day 1→5, 5 injections
compound,measurement,setting,value
CC[C@@]1(O)C[C@H](O[C@H]2C[C@H](N(C)C)[C@H](O[C@H]3C[C@H](O)[C@H](O[C@H]4C[C@H](O)[C@H](O)[C@H](C)O4)[C@H](C)O3)[C@H](C)O2)c2c(cc3c(c2O)C(=O)c2c(O)ccc(O)c2C3=O)[C@H]1C(=O)OC [marcellomycin],MIC,[1]; Cryptococcus neoformans,125 µg/mL
same,MIC,[2]; Streptococcus pneumoniae,0.03 µg/mL
same,MIC,Proteus mirabilis A-9900; Proteus mirabilis,> 125 µg/mL
same,MIC,[3]; Staphylococcus aureus,1 µg/mL
same,MIC,Escherichia coli A-15119; Escherichia coli,125 µg/mL
same,MIC,[4]; Staphylococcus aureus,1 µg/mL
same,activity on P-388 mouse leukemia,P-388 leukemia; Example 7 column fraction,high activity
same,Average Weight Change,L-1210 leukemia [5]; [13],-0.7 g
same,MST %T/C,L-1210 leukemia [5]; [13],157%
same,MST Days,L-1210 leukemia [5]; [13],11.0 days
same,Survivors Day 5,L-1210 leukemia [5]; [13],6/6
same,Average Weight Change,L-1210 leukemia [5]; [14],-1.2 g
same,MST %T/C,L-1210 leukemia [5]; [14],86%
same,MST Days,L-1210 leukemia [5]; [14],6.0 days
same,Survivors Day 5,L-1210 leukemia [5]; [14],3/6
same,Average Weight Change,L-1210 leukemia [5]; [15],-0.7 g
same,MST %T/C,L-1210 leukemia [5]; [15],157%
same,MST Days,L-1210 leukemia [5]; [15],11.0 days
same,Survivors Day 5,L-1210 leukemia [5]; [15],6/6
same,Average Weight Change in g.,L-1210 leukemia [5]; [16],TOXIC
same,MST %T/C,L-1210 leukemia [5]; [16],TOXIC
same,MST Days,L-1210 leukemia [5]; [16],TOXIC
same,Survivors Day 5,L-1210 leukemia [5]; [16],0/6
same,Average Weight Change,L-1210 leukemia [5]; [17],-0.7 g
same,MST %T/C,L-1210 leukemia [5]; [17],143%
same,MST Days,L-1210 leukemia [5]; [17],10.0 days
same,Survivors Day 5,L-1210 leukemia [5]; [17],3/6
same,Average Weight Change,L-1210 leukemia [5]; [18],-1.1 g
same,MST %T/C,L-1210 leukemia [5]; [18],129%
same,MST Days,L-1210 leukemia [5]; [18],9.0 days
same,Survivors Day 5,L-1210 leukemia [5]; [18],6/6
same,Average Weight Change,L-1210 leukemia [5]; [19],-0.8 g
same,MST %T/C,L-1210 leukemia [5]; [19],129%
same,MST Days,L-1210 leukemia [5]; [19],9.0 days
same,Survivors Day 5,L-1210 leukemia [5]; [19],6/6
same,Average Weight Change,L-1210 leukemia [5]; [20],0 g
same,MST %T/C,L-1210 leukemia [5]; [20],129%
same,MST Days,L-1210 leukemia [5]; [20],9.0 days
same,Survivors Day 5,L-1210 leukemia [5]; [20],6/6
same,Average Weight Change,L-1210 leukemia [5]; [21],0 g
same,MST %T/C,L-1210 leukemia [5]; [21],150%
same,MST Days,L-1210 leukemia [5]; [21],10.5 days
same,Survivors Day 5,L-1210 leukemia [5]; [21],6/6
same,Average Weight Change,L-1210 leukemia [5]; [22],-0.2 g
same,MST %T/C,L-1210 leukemia [5]; [22],143%
same,MST Days,L-1210 leukemia [5]; [22],10.0 days
same,Survivors Day 5,L-1210 leukemia [5]; [22],6/6
same,potency relative to musettamycin in inhibitory effects on L-1210,"L-1210 leukemia [5]; purified, L-1210 mouse leukemia",about four times
same,MIC,[6]; Candida tropicalis,125 µg/mL
same,MIC,Candida albicans A-9540; Candida albicans,125 µg/mL
same,MIC,Escherichia coli A-21780; Escherichia coli,32 µg/mL
same,MIC,[7]; Trichophyton mentagrophytes,> 125 µg/mL
same,MIC,[8]; Klebsiella pneumoniae,125 µg/mL
same,MIC,[9]; Streptococcus pyogenes,0.03 µg/mL
same,MIC,Candida krusei A-15052,125 µg/mL
same,activity on L-1210 mouse leukemia,L-1210 leukemia [10]; Example 7 column fraction,high activity
same,LD50,[11],6.35 to 10.6 mg/kg
CC[C@@]1(O)C[C@H](O[C@H]2C[C@H](N(C)C)[C@H](O[C@H]3C[C@H](O)[C@H](O)[C@H](C)O3)[C@H](C)O2)c2c(cc3c(c2O)C(=O)c2c(O)ccc(O)c2C3=O)[C@H]1C(=O)OC [musettamycin],MIC,"[1]; in vitro, Cryptococcus neoformans A-1503, read-out: MIC",63 µg/mL
same,MIC,"[2]; in vitro, Streptococcus pneumoniae A-9585, read-out: MIC",0.06 µg/mL
same,MIC,"Proteus mirabilis A-9900; in vitro, Proteus mirabilis A-9900, read-out: MIC",> 125 µg/mL
same,activity of fraction,[12],active
same,MIC,"[3]; in vitro, Staphylococcus aureus A-9537, read-out: MIC",1 µg/mL
same,MIC,"Escherichia coli A-15119; in vitro, Escherichia coli A-15119, read-out: MIC",> 125 µg/mL
same,MIC,"[4]; in vitro, Staphylococcus aureus A-9497, read-out: MIC",0.5 µg/mL
same,"Avg. wt. Difference (T-C, g.)",P-388 leukemia; 3.2 mg/kg,-3.0 g
same,T/C Percent MST,P-388 leukemia; 3.2 mg/kg,145%
same,"Avg. wt. Difference (T-C, g.)",P-388 leukemia; 6.4 mg/kg,-3.4 g
same,T/C Percent MST,P-388 leukemia; 6.4 mg/kg,160%
same,"Avg. wt. Difference (T-C, g.)",P-388 leukemia; .2 mg/kg,-2.1 g
same,T/C Percent MST,P-388 leukemia; .2 mg/kg,120%
same,"Avg. wt. Difference (T-C, g.)",P-388 leukemia; .4 mg/kg,-1.6 g
same,T/C Percent MST,P-388 leukemia; .4 mg/kg,135%
same,"Avg. wt. Difference (T-C, g.)",P-388 leukemia; .8 mg/kg,-2.0 g
same,T/C Percent MST,P-388 leukemia; .8 mg/kg,140%
same,Average Weight Change in g.,L-1210 leukemia [5]; [13],+0.3 g.
same,MST %T/C,L-1210 leukemia [5]; [13],129%
same,MST Days,L-1210 leukemia [5]; [13],9.0 days
same,Average Weight Change,L-1210 leukemia [5]; [14],-1.3 g
same,MST %T/C,L-1210 leukemia [5]; [14],157%
same,MST Days,L-1210 leukemia [5]; [14],11.0 days
same,Average Weight Change in g.,L-1210 leukemia [5]; [15],+0.5 g.
same,MST %T/C,L-1210 leukemia [5]; [15],143%
same,MST Days,L-1210 leukemia [5]; [15],10.0 days
same,Average Weight Change,L-1210 leukemia [5]; [23],-1.5 g
same,MST %T/C,L-1210 leukemia [5]; [23],86%
same,MST Days,L-1210 leukemia [5]; [23],6.0 days
same,Average Weight Change,L-1210 leukemia [5]; [17],-0.6 g
same,MST %T/C,L-1210 leukemia [5]; [17],150%
same,MST Days,L-1210 leukemia [5]; [17],10.5 days
same,Average Weight Change in g.,L-1210 leukemia [5]; [18],+1.8 g.
same,MST %T/C,L-1210 leukemia [5]; [18],129%
same,MST Days,L-1210 leukemia [5]; [18],9.0 days
same,Average Weight Change in g.,L-1210 leukemia [5]; [19],+1.3 g.
same,MST %T/C,L-1210 leukemia [5]; [19],114%
same,MST Days,L-1210 leukemia [5]; [19],8.0 days
same,Average Weight Change in g.,L-1210 leukemia [5]; [20],+0.6 g.
same,MST %T/C,L-1210 leukemia [5]; [20],129%
same,MST Days,L-1210 leukemia [5]; [20],9.0 days
same,Average Weight Change in g.,L-1210 leukemia [5]; [21],+1.2 g.
same,MST %T/C,L-1210 leukemia [5]; [21],121%
same,MST Days,L-1210 leukemia [5]; [21],8.5 days
same,Average Weight Change in g.,L-1210 leukemia [5]; [22],+0.4 g.
same,MST %T/C,L-1210 leukemia [5]; [22],136%
same,MST Days,L-1210 leukemia [5]; [22],9.5 days
same,MIC,"[6]; in vitro, Candida tropicalis A-15051, read-out: MIC",63 µg/mL
same,Solubility,Solubility; organic solvents,Soluble in most organic solvents
same,Solubility,"Solubility; water, aliphatic hydrocarbons and ether","insoluble in water, aliphatic hydrocarbons and ether"
same,MIC,"Candida albicans A-9540; in vitro, Candida albicans A-9540, read-out: MIC",125 µg/mL
same,MIC,"Escherichia coli A-21780; in vitro, Escherichia coli A-21780, read-out: MIC",32 µg/mL
same,MIC,"[7]; in vitro, Trichophyton mentagrophytes A-9870, read-out: MIC",> 125 µg/mL
same,MIC,"[8]; in vitro, Klebsiella pneumoniae A-9977, read-out: MIC",> 125 µg/mL
same,MIC,"[9]; in vitro, Streptococcus pyogenes A-9604, read-out: MIC",0.06 µg/mL
same,MIC,"Candida krusei A-15052; in vitro, Candida krusei A-15052, read-out: MIC",125 µg/mL
same,"Avg. wt. Difference (T-C, g.)",L-1210 leukemia [10]; 3.2 mg/kg,-2.5 g
same,T/C Percent MST,L-1210 leukemia [10]; 3.2 mg/kg,120%
same,"Avg. wt. Difference (T-C, g.)",L-1210 leukemia [10]; 6.4 mg/kg,-2.5 g
same,T/C Percent MST,L-1210 leukemia [10]; 6.4 mg/kg,140%
same,"Avg. wt. Difference (T-C, g.)",L-1210 leukemia [10]; .8 mg/kg,-1.1 g
same,T/C Percent MST,L-1210 leukemia [10]; .8 mg/kg,107%
same,LD50,[11],9.8 to 21.1 mg/kg
